In publication PMC8919384 (ACS Medicinal Chemistry Letters, 2022):
Values after ≈ are worked out from the molar mass of the structure shown.

Key:
A1 AR = target: T1, A1 AR (Homo sapiens, UniProt P30542); conditions: binding Ki
T1 sequence (P30542 1-326): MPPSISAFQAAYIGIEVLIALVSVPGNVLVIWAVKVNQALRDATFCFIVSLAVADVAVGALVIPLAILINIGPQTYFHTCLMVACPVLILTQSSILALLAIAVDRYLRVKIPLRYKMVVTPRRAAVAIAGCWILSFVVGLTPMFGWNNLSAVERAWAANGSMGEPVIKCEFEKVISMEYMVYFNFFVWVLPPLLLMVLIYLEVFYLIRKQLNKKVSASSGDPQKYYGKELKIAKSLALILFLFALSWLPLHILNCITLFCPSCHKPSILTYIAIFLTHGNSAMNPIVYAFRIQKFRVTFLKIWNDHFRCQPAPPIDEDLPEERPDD

[1] = tested on: adult rat model of focal cerebral ischemia; conditions: cited from earlier work
lung metastasis model = conditions: cited from earlier work
melanoma-bearing mice = conditions: combined with anti-CTLA-4 mAb; cited from earlier work
Solubility = format: physicochemical; conditions: pH 1.2, simulated gastric fluid

SMILES: Cc1cnc(-c2nc3c(-c4ccc(=O)n(C)c4)cnc(N)n3n2)s1 [1d]
- selectivity for A1 AR over the A2A AR (A1 AR): two-fold

SMILES: Nc1nc2c(cnn2CCc2ccccc2)c2nc(-c3ccco3)nn12 [SCH58261]
- ischemic brain damage [1]: reduced ischemic brain damage

SMILES: Nc1nc(NCCc2ccc(O)cc2)nc2nc(-c3ccco3)nn12 [ZM241385]
- tumor growth in a lung metastasis model (lung metastasis model): significantly inhibited tumor growth
- tumor growth in melanoma-bearing mice (melanoma-bearing mice): remarkable delay in tumor growth

SMILES: Cn1cc(-c2cnc(N)n3nc(-c4ccco4)nc23)ccc1=O [1a]
- solubility (Solubility): 1.99 mg/mL (≈ 6.45 mM)
